For test [1] the following is noted: cited from earlier work.
Test [2] relates to rats given an intraperitoneal glucose load. The test can be described thus: Plasma glucose in rats given an intraperitoneal glucose load, DP with and without insulin (Example 2). In kind it is in vivo, Sprague-Dawley rats. On the procedure: (§1) A study was conducted to determine the effect on plasma glucose of deletion peptide, with and without insulin, in rats given an intraperitoneal glucose load. Groups of five male Sprague-Dawley rats were involved in this study. All weighed between 160 to 168 grams and were maintained on standard laboratory diet until 18 hours prior to the test procedures. Test groups of fasted rats received, in rapid succession, 1.0 ml of 0.75 M glucose, 10 mU of insulin in admixture with 1% bovine serum albumin (BSA) in normal saline (pH 7.4), and either 0, 25, 50 or 100 μg doses of deletion peptide. Control groups of rats received glucose and 1% BSA in saline with no insulin but with similarly varying levels of deletion peptide. Plasma glucose determinations were made on blood drawn one hour after administration of test substances and the results (means, ± standard errors) of these determinations are set out in Table I below.

Test [3] shares this test system. The test can be described thus: Plasma glucose in rats given an intraperitoneal glucose load, increasing insulin doses with and without 100 μg DP (Example 3). The conditions noted are these: for Plasma Glucose at 60 minutes: 1.0% BSA in saline, no DP, i.p. glucose load. In kind it is in vivo. On the procedure: as §1
A study was conducted under the same general procedures as Example 2 to determine the effect of increasing doses of insulin, with and without 100 μg of deletion peptide, on rats given an intraperitoneal glucose load. The results of plasma glucose determinations on blood drawn after 60 minutes are set out below in Table II.

The subject of test [4] is mice ob/ob, ob/+, db/db, db/m. The test can be described thus: Plasma glucose after glucose load, fixed insulin and DP doses, normal and genetically abnormal mice (Example 4). In kind it is in vivo. The conditions noted are these: i.p. glucose, insulin 0.001 mU/10g. On the procedure:
(§2) A study was conducted to ascertain the effects of fixed amounts of deletion peptide and insulin on various animal models, including rats and normal and genetically abnormal mice.
(§3) Animals in test groups of five each were employed in these procedures. Sprague-Dawley rats weighed approximately 200 grams; homozygous genetically abnormal mice (ob/ob and db/db) had weights in the range of 40 to 60 grams; and heterozygous normal mice (ob/+ and db/m) all weighed approximately 25 grams. Glucose was administered intraperitoneally at a dosage of 0.05 ml/10g of a solution containing 135 mg/ml glucose, except for one group of rats which were given an oral dose of glucose comprising 1 ml of 270 mg/ml glucose solution. Insulin was administered at a dose of 0.001 mU/10g and deletion peptide was simultaneously intraperitoneally administered at a dose of 5.0 μg/10g.
(§4) The results of plasma glucose determinations performed on blood drawn one hour after administration of test materials are set out in Table III, below.

The test system of the next test is Rhesus monkeys. The test can be described thus: Induced hyperglycemia in Rhesus monkeys, plasma glucose over two hours (Example 6). In kind it is in vivo. On the procedure:
A study was conducted to determine the effects of deletion peptide on induced hyperglycemia in Rhesus monkeys. Blood samples were taken from normal female monkeys (in three experimental groups of three) five minutes before administration of an oral dose of 3.0 ml/kg of 0.5 g/ml glucose and intramuscular administration of either: (1) 0.5 ml/kg phosphate buffered saline (PBS), pH 7.4; (2) deletion peptide 0.1 ml/kg of 1.0 mg/ml solution in PBS; (3) deletion peptide as above combined with 0.5 ml/kg of 20 mU/ml insulin in PBS; or (4) insulin alone as above. Blood samples were then periodically withdrawn over two hours and analyzed for plasma glucose levels. Plasma glucose level data is set out in Table IV.

The next test concerns Sprague-Dawley rats. The test can be described thus: Plasma glucose after glucose load, fixed insulin and DP doses, rats (Example 4). The format is in vivo. The following applies: Rat (normal), insulin 0.001 mU/10g. On the procedure:
as §2, §3, §4

Test [5] has as its system dog, hyperglycemia induced by infusing glucose. The test can be described thus: Portal infusion of deletion peptide in dog during induced hyperglycemia with fixed insulin levels (Example 5, second study). The format is in vivo. The following applies: basal insulin alone, glucose >200 mg/deciliter. On the procedure:
In the second study, deletion peptide was infused portally at a rate of 1 μg/kg/min during hyperglycemia induced by infusing glucose through a peripheral catheter (to maintain glucose levels in excess of 200 mg/deciliter). Basal glucagon levels were fixed and insulin levels were fixed either at basal or four-fold basal levels.

In a further test the test system is normal rats. The following applies: cited from earlier work.
For another test, the system named is fat cells. The conditions noted are these: compared with the 32-46 peptide findings; cited from earlier work.
The test system of the next test is rabbits. The following applies: cited from earlier work.
The conditions of test [6]: after hGH administration; cited from earlier work.

Regarding “hGH positions 1 through 15: fragment duplicating the sequence of amino acid residues at hGH positions 1 through 15 (FPTIPLSRLFDNAML; UniProt P01241 27-41, looked up, fragment)”, in [1] (hGH amino terminal fragment), the “effect on glucose uptake” value was “insulin potentiating effect on glucose uptake”.
Regarding insulin, the “Plasma Glucose at 60 minutes” value came out at 8.1 ± 0.2 mmol/L in [2] (10 mU insulin in 1.0% BSA in saline, 0 μg DP, fasted rats, i.p. glucose load); 8.0 ± 0.3 mmol/L in [3] (insulin 7 mU per rat); 8.1 ± 0.2 mmol/L in test [3] (insulin 10 mU per rat); 7.0 ± 0.1 mmol/L in test [3] (insulin 20 mU per rat); 5.2 ± 0.3 mmol/L in [3] (insulin 40 mU per rat). Also, the effect on glycemia result in test [2] (low dose of insulin in BSA alone (10 mU, 0 DP)) is “without effect on glycemia”. For the same substance, the “effect on plasma glucose” value in test [3] (higher doses of insulin (20, 40 mU)) is “corresponding decreases in plasma glucose”. Further, the “change in glycemia compared with the control group” value in test [3] (insulin 7.0 mU/rat, whether or not deletion peptide was concurrently administered) is on record as “no change in glycemia”. Further, the “effect on plasma glucose concentration” value in [3] (insulin alone, 10 mU) was “without effect on plasma glucose concentration”. The Plasma Glucose at 60 min in test [4] (Mouse db/db) came out at 198 ± 31 mg/dL; in test [4] (Mouse db/m (normal)), 102 ± 10 mg/dL; in [4] (Mouse ob/+ (normal)), 99.5 ± 6 mg/dL; in test [4] (Mouse ob/ob) it was 167 ± 26 mg/dL; in the test on Sprague-Dawley rats (glucose administered orally), 144 ± 12 mg/dL; with Sprague-Dawley rats (i.p. glucose), 121 ± 28 mg/dL. The Plasma Glucose with Rhesus monkeys (+5 min., oral glucose + i.m. insulin 0.5 ml/kg of 20 mU/ml) came to 79 ± 9 mg/dL; with Rhesus monkeys (+15 min., oral glucose + i.m. insulin), 72 ± 10 mg/dL; with Rhesus monkeys (+30 min., oral glucose + i.m. insulin), 85 ± 11 mg/dL; with Rhesus monkeys (+45 min., oral glucose + i.m. insulin) it was 88 ± 13 mg/dL; with Rhesus monkeys (+60 min., oral glucose + i.m. insulin), 109 ± 14 mg/dL; in the test with Rhesus monkeys (+120 min., oral glucose + i.m. insulin), 108 ± 14 mg/dL. The Plasma Glucose in the test on Rhesus monkeys (-5 min. (before administration), oral glucose + i.m. insulin group) was 71 ± 3 mg/dL. Also, the hepatic glucose output result in test [5] is “only reduced hepatic glucose output”.
With “peptide duplicating residues 176 through 191: peptide duplicating hGH residues 176 through 191 (FLRIVQCRSVEGSCGF; UniProt P01241 202-217, looked up, fragment)”, in [1] (hGH carboxy terminal fragment), the glycemic effect result is on record as “hyperglycemic effect”.
Take “tetradecapeptide: synthetic tetradecapeptide copying hGH residues at positions 31 through 44 (FEEAYIPKEQKYSF; UniProt P01241 57-70, looked up, fragment)”: the “in vivo hypoglycemic effect” value with normal rats and with rabbits was “absence of any in vivo hypoglycemic effect” in each case. In the test with fat cells, the “in vitro effects on fat cells” value is reported as “substantially the same in vitro effects on fat cells”.
For the substance human growth hormone [hGH], in test [6], the “blood levels of glucose” value is “initially raise and then lower blood levels of glucose”; the free fatty acids entry is “lower free fatty acids within one hour of administration, followed by later increasing circulating fatty acids”.

These data come from patent US4558033A, “Potentiation of the effects of insulin by peptides” (Amgen, priority 1983, dated 1985).
